Experimental data: publication PMC11945486, “TAS1R2/TAS1R3 Single-Nucleotide Polymorphisms Affect Sweet Taste Receptor Activation by Sweeteners: The SWEET Project” (Nutrients, 2025)
Read-outs that look alike come from different tables or passages of the source. No end group written: not given here.

T1: human TAS1R2-WT/TAS1R3-R813K (Homo sapiens, UniProt Q7RTX0+Q8TE23, R813K)
T1 construct: expressed in transfected cells; host or cells: HEK293T stably expressing Gα16gust44
T1 sequence (Q8TE23 20-839): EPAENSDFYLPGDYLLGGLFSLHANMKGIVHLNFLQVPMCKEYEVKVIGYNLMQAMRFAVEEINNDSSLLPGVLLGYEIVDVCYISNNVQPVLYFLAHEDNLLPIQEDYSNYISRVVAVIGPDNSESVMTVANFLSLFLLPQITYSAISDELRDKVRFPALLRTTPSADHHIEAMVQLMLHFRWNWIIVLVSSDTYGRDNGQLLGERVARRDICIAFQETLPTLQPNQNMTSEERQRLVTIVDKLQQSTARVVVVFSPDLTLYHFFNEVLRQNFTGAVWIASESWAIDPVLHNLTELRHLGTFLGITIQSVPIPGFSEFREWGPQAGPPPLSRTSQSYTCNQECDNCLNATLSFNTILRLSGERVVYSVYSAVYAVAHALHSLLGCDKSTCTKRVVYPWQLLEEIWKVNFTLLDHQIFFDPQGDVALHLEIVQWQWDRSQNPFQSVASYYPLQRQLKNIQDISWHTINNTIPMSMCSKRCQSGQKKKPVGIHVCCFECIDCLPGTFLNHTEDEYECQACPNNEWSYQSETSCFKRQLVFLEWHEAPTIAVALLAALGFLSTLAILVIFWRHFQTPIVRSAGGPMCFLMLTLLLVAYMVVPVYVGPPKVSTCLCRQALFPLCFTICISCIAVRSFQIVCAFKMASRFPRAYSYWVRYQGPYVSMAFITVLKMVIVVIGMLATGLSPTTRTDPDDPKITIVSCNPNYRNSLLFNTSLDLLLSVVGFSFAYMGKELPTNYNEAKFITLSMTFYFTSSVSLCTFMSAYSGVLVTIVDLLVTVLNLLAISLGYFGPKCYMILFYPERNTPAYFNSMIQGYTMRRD
T1 sequence (Q7RTX0 21-852 R813K): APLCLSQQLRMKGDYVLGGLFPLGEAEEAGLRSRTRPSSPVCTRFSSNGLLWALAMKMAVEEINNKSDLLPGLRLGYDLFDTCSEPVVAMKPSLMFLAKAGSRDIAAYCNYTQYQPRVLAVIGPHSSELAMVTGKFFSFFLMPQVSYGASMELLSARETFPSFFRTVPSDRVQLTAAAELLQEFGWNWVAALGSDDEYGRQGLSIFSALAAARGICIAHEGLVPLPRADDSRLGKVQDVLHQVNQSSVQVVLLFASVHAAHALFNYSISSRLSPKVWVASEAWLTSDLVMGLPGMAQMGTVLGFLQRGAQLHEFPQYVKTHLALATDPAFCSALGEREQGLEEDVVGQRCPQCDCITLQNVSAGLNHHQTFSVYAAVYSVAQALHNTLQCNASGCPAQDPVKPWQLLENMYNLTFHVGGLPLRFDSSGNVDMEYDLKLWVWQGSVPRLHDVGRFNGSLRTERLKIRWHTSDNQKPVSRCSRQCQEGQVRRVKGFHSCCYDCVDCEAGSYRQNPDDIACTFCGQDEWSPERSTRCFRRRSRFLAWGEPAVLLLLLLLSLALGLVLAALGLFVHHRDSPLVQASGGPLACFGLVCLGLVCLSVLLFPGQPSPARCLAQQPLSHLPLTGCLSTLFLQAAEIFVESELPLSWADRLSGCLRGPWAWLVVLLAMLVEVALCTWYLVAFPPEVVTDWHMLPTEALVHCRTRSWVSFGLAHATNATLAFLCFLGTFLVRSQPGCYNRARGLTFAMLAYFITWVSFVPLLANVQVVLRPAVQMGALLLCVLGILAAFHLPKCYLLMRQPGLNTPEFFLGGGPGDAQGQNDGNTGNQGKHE

B1: thaumatin (protein)
chain: ATFEIVNRCSYTVWAAASKGDAALDAGGRQLNSGESWTINVEPGTKGGKIWARTDCYFDDSGSGICKTGDCGGLLRCKRFGRPPTTLAEFSLNQYGKDYIDISNIKGFNVPMDFSPTTRGCRGVRCAADIVGQCPAKLKAPGGGCNDACTVFQTSEYCCTTGKCGPTEYSRFFKRLCPDAFSYVLDKPTTVTCPGSSNYRVTFCPTA
modifications: Eight disulfides
notes: sweet-tasting plant protein, E957

Molecular target: T1, human TAS1R2-WT/TAS1R3-R813K
Experiment: Calcium mobilisation assay, TAS1R2-WT with TAS1R3 variant R813K
Format: cell-based
Conditions: for Max ΔF/F0: maximal signal amplitude
Source text: The coding sequences for TAS1R2 and TAS1R3 were commercially synthesised, and the human codon was optimised for expression in human cells. The coding sequences of human TAS1R2 and TAS1R3 were subcloned and inserted into the mammalian expression vectors pcDNA6/myc-HisA and pcDNA4/myc-HisA (Invitrogen; Thermo Fisher Scientific; Illkirch, France) between the EcoRI and NotI restriction sites, generating the plasmids pcDNA6-TAS1R2 and pcDNA4-TAS1R3, respectively. To increase protein expression in mammalian cells, an upstream start codon was used, which was a sequence called MAX, corresponding to the QBI SP163 element also described in pcDNA4-HisMax (Invitrogen; Thermo Fisher Scientific; Illkirch, France). To measure the expression level of the receptor by immunohistochemistry, we used the FLAG sequence ([…]) in the C-terminal position, which encodes the FLAG tag epitope. SNP variants of TAS1R2 and TAS1R3 were constructed based on […], respectively, using site-directed mutagenesis (Genewiz; Leipzig, Germany).
The HEK293T cells were kindly provided by Jay P. Slack (Givaudan Flavors Corporation; Cincinnati, OH, USA). HEK293T cells stably transfected with Gα16gust44 [43, 67] were seeded in poly-D-lysine-coated clear-bottom black 96-well plates (0.35 × 10^5 cells/well) in high-glucose DMEM supplemented with 2 mM GlutaMAX, 10% dialysed foetal bovine serum with penicillin/streptomycin and G418 (400 μg/mL) at 37 °C and 6.3% CO2 in a humidified atmosphere as previously reported. […] As a negative control, HEK293T cells were mock-transfected with the empty expression vector. After a further 24 h of incubation, the HEK293T cells were washed with C1 buffer (130 mM NaCl, 5 mM KCl, 10 mM HEPES pH 7.4 and 2 mM CaCl2). The 96-well plates containing the cells were then stimulated with sweet-tasting compounds. […] Different concentration ranges were tested depending on the sweet compound injected. The Ca^2+ changes were expressed as fractional changes in fluorescent light intensity: ΔF/F = (F − F0)/F0, where F was the fluorescent light intensity at each point, and F0 was the value of emitted fluorescent light prior to stimulus application. To calculate dose–response relationships, the changes in fluorescence upon stimulus application were averaged, mock-subtracted and baseline-corrected. The dose–response data obtained were adjusted using a 4-parameter logistic equation. The half-maximal effective concentrations (EC50 values) and maximal signal amplitudes were calculated using SigmaPlot software (version 15.0) (Systat Software; San Jose, CA, USA).
For in vitro calcium mobilisation assay performed on hTAS1R2-SNPs, hTAS1R3-SNPs and mTAS1R3-I60T, 6 to 7 concentrations were tested for each sweet compound, plus buffer alone. All concentration–receptor combinations were measured in duplicate, and each experiment was repeated at least 4 times (8 wells/concentration). Results were expressed for each concentration as ΔF/F mean ± SEM and represented as dose–response curves.

Row | Molecule | R1 = Variant EC50/WT EC50 | Max ΔF/F0 | EC50 (read-out: EC50) | EC50 (brazzein)
1 | CC1=CC(=O)NS(=O)(=O)O1 [Acesulfame K, acesulfame K] | 0.7 | 0.40 ± 0.01 | 433 ± 34 µM | 
2 | O=S(=O)(O)NC1CCCCC1 [Cyclamate, cyclamate] |  |  | 1330 ± 22 µM | 
3 | C[C@H](CC[C@@H](O[C@@H]1O[C@H](CO[C@@H]2O[C@H](CO)[C@@H](O)[C@H](O)[C@H]2O)[C@@H](O)[C@H](O)[C@H]1O[C@@H]1O[C@H](CO)[C@@H](O)[C@H](O)[C@H]1O)C(C)(C)O)[C@H]1CC[C@@]2(C)[C@@H]3CC=C4[C@@H](CC[C@H](O[C@@H]5O[C@H](CO[C@@H]6O[C@H](CO)[C@@H](O)[C@H](O)[C@H]6O)[C@@H](O)[C@H](O)[C@H]5O)C4(C)C)[C@]3(C)[C@H](O)C[C@]12C [Mogroside V, mogroside V] | 0.7 | 1.14 ± 0.02 | 22 ± 1.3 µM | 
4 | COc1ccc(CCC(=O)c2c(O)cc(O[C@@H]3O[C@H](CO)[C@@H](O)[C@H](O)[C@H]3O[C@@H]3O[C@@H](C)[C@H](O)[C@@H](O)[C@H]3O)cc2O)cc1O [NHDC, neohesperidin dihydrochalcone] | 0.7 | 1.00 ± 0.02 | 34.2 ± 15.2 µM | 
5 | COC(=O)[C@H](Cc1ccccc1)NC(=O)[C@H](CC(=O)O)NCCC(C)(C)C [Neotame] | 0.8 | 0.79 ± 0.02 | 0.98 ± 0.07 µM | 
6 | C=C(C)[C@@H]1CC=C(/C=N/O)CC1 [Perillartine, perillartine] | 0.8 | 1.28 ± 0.16 | 10.4 ± 3.6 µM | 
7 | C=C1C[C@@]23CC[C@H]4[C@@](C)(CCC[C@@]4(C)C(=O)O[C@@H]4O[C@H](CO)[C@@H](O)[C@H](O[C@@H]5O[C@H](CO)[C@@H](O)[C@H](O)[C@H]5O)[C@H]4O[C@@H]4O[C@H](CO)[C@@H](O)[C@H](O)[C@H]4O)[C@@H]2CC[C@]1(O[C@@H]1O[C@H](CO)[C@@H](O)[C@H](O[C@@H]2O[C@H](CO)[C@@H](O)[C@H](O)[C@H]2O)[C@H]1O[C@@H]1O[C@H](CO)[C@@H](O)[C@H](O)[C@H]1O)C3 [Rebaudioside M, rebaudioside M] | 0.7 | 1.18 ± 0.06 | 27.4 ± 3.4 µM | 
8 | OC[C@H]1O[C@H](O[C@]2(CCl)O[C@H](CCl)[C@@H](O)[C@@H]2O)[C@H](O)[C@@H](O)[C@H]1Cl [Sucralose] | 1.1 | 0.90 ± 0.03 | 120 ± 9 µM | 
9 | brazzein (QDKCKKVYENYPVSKCQLANQCNYDCKLDKHARSGECFYDEKRNLQCICDYCEY; ends and bridges not checked; cysteine pairing not given here; UniProt P56552 1-54, looked up) [sweet-tasting protein obtained by recombinant production using the yeast Pichia pastoris] | 0.5 | 1.00 ± 0.05 |  | 58.0 ± 10.5 µg/mL
10 | thaumatin | 0.6 | 0.74 ± 0.04 |  | 
11 | B1 |  |  | 6.5 ± 0.9 µM | 
